# Reference: US7323318B2, “Assay for distinguishing live and dead cells” (priority 2004, dated 2008)
# Experiments:
# population of cells = test: Image-based live-dead cell assay using mean tubulin marker (DM1-α) intensity per cell
# Source text: FIG. 1 presents two images of cells: a left image of a control population of cells treated with DMSO, and a right image of a test population of cells treated with the compound carbonyl cyanide 3-chlorophenylhydrazone (herein CCCP), a poison which acts on the cellular respiratory pathway. After treatment with DMSO or CCCP, the cells were fixed and stained with multiple markers. Three of these markers are shown in the image: red indicates DNA, blue indicates tubulin, and green indicates the trans-Golgi network. […] Note that individual cells are identified (whether alive or dead) by a small red area in the central region. This red area is associated with DNA in the cell nucleus. […] This is not necessarily an indication that the dead cells have increased levels of Golgi.
# FIG. 2 presents a flowchart depicting one method for producing a model that can be used to determine whether an individual cell is live or dead. As shown in a block 203, the method begins by preparing the cell populations that are to be used for imaging. In certain embodiments, a sandwich culture is employed. In this preliminary operation, some cell populations are treated as controls (assumed to have a high fraction of cells that are alive) and other cell populations are treated as test samples (assumed to have a significant fraction of cells that are dead). Upon completion of treatment, cells are fixed and stained with appropriate markers. The test cells will all have been treated with a compound or other stimulus known to kill a significant percentage of the cells in a given population. Together, the control and test cell populations provide relatively large numbers of live and dead cells. The size of these populations should be large enough to provide a training set sufficient to generate a model that can reliably distinguish live cells from dead cells.
# An exemplary two-step segmentation process is illustrated in FIGS. 3A and 3B. FIG. 3A presents the result of the first step. As shown there, two images (the left one for a control population treated with DMSO and the right one for a test population treated with 2.5 μM CCCP) show nuclei circled in the interiors of individual cells. Cellular DNA was stained with Hoechst […], which emits fluorescence at a wavelength selectively collected in the FIG. 3A image to permit identification of the individual nuclei. Each such nucleus is presumed to belong to a separate cell.
# FIG. 3B presents the results of the second step of the cell segmentation procedure. As shown, the cell populations of FIG. 3A are again presented, but this time at the Alexa 647 channel (i.e., the bright regions in the image locate the source of radiation emitted at the wavelength of Alexa 647). […] The cell boundaries so identified are circled within the images. Each cell boundary defines a collection of pixels that are deemed to belong to a particular cell. For image processing those pixels are used extracting information about the particular cell in question.
# After the boundaries of each cell have been identified, the appropriate live-dead indicator feature can be extracted on a cell-by-cell basis. See block 209. As indicated above, the intensity of a marker for tubulin (an indicator of local tubulin concentration within the cell) can be identified for each pixel in a given cell. Each cell will be characterized on the basis of its level of tubulin, whether based on an average value over all pixels in the cell, a maximum or minimum value within the cell, or some other indicator of tubulin quantity. In a preferred embodiment, the mean tubulin marker intensity is calculated over the pixels in a cell and the resulting value is employed as the live-dead indicator feature.
# Additional images are presented in FIG. 3C, highlighting the marker DM1-α for tubulin. […] Note that live and dead cells can be usually distinguished by visual inspection. […]
# [1] = test system: live cells and dead cells; test: Total cell area in live and dead cells (pixel count within segmented boundary); format: cell-based; details: FIG. 6B
# Method: The area was determined from a pixel count within the boundary determined by segmentation. […] A simple consideration of the average cell area for all cells (including live cells and dead cells) would likely mask the fact that the higher concentrations of the drug cause dead cells to become progressively larger. The effect of the live cells masks, somewhat, the effect on the dead cells. […] Note that the average area of the live and dead cells together is shown as lines 611 in FIG. 6B. Note also that, as with the plot in FIG. 6A, the live cells were discriminated from dead cells using the mean DM1-α intensity of each cell.
# [2] = test system: TGN (trans-Golgi network); details: FIG. 6C; increasing concentrations
# Source text: As with FIGS. 6A and 6B, the live-dead discrimination in FIG. 6C was made using mean DM1-α intensity (per cell).
smiles,measurement,setting,value
"N#CC(C#N)=NNc1cccc(Cl)c1 [CCCP, carbonyl cyanide 3-chlorophenylhydrazone]",number of cells with significant tubulin concentration versus DMSO control,"population of cells; FIG. 1, fixed and stained cells, tubulin marker (blue)",far fewer cells with significant tubulin concentration
same,percentage of dead cells versus DMSO control population,"population of cells; FIG. 3C, 2.5 μM CCCP, DM1-α tubulin channel",far higher percentage of dead cells
same,mean tubulin marker intensity per cell (histogram) versus control cells,"population of cells; FIG. 4B, 0.625 μM to 5 μM CCCP for 24 hours, test cells pooled with control cells",a relatively large fraction of the cells have a mean tubulin marker intensity well below that associated with the control cells
same,concentration at which the number of live cells begins to decrease,"population of cells; FIG. 6A, normalized concentration, decrease at roughly the same rate as the dead cell increase",about 0.5 μM
same,concentration at which the number of dead cells begins to increase dramatically,"population of cells; FIG. 6A, normalized concentration, live/dead discriminated by mean DM1-α intensity, samples of around 800 cells",about 0.5 μM
same,"total number of cells (number of objects, DNA spots) across concentrations","population of cells; FIG. 6A, three samples of around 800 cells each",remain approximately constant
O=C(O)Cc1ccccc1Nc1c(Cl)cccc1Cl [diclofenac],total area of the live cells,[1]; beginning at approximately the same concentration (arbitrary 100),gradually decreased
same,area of the dead cells,[1]; from the arbitrary concentration of 100 in the plot,begins to increase rather dramatically
Nc1c2c(nc3ccccc13)CCCC2 [tacrine],Golgi (TGN) marker intensity signal in dead cells,[2],relatively minimal affect
same,mean Golgi (TGN) marker intensity signal in live cells,[2],dramatically increase
